In paper PMC10978252 (Journal of medicinal chemistry, 2024):
pIC50: −log10 of the molar value. Entries after “also recorded” stand apart in the source; their conditions may differ.

Experiments:
[1] = system: primary CD4+ T cells; assay: 72 h viability
[2] = target: T1, HIV-Nef (Human immunodeficiency virus type 1, UniProt P03406); type: cell-based, HIV-1; settings: for Nef inhibitory potency, in words (relative to parent or comparator) / Nef IC50: 24 h; for restoration of MHC-I levels on infected (GFP+) cells: ΔGPE transduced 48 h then treated 24 h, compared to uninfected (GFP-) cells; for Nef IC50: HIV ΔGPE transduced primary CD4+ T cells, upper limit of assay 1000 nM
T1 sequence (P03406 2-206): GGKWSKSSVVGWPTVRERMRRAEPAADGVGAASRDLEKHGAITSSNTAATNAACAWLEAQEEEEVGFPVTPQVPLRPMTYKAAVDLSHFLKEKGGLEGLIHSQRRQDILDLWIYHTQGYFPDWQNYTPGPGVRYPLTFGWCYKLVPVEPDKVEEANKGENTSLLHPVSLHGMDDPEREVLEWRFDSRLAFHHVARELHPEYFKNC

[3] = system: MHC-I HLA-A2; type: cell-based, human; settings: ΔGPEN; treated 24 h
[4] = system: primary CD4+ T cells; assay: 24 h viability
[5] = target: T1, HIV-Nef; settings: cited from earlier work; for MHC-I HLA-A2 restoration in HIV-infected primary T cells, side-by-side assays: B9 up to more than 10μM, CMA nanomolar
[6] = system: V-ATPase; settings: cited from earlier work
[7] = system: HIV-1 infected CD4+ T cells; settings: single digit micromolar concentrations; cited from earlier work
[8] = system: Nef overexpressing HEK293T cells; settings: single digit micromolar concentrations; cited from earlier work
[9] = target: V-ATPase (Homo sapiens, UniProt P27449); assay: cell-based; type: cell-based; settings: for V-ATPase inhibition (Lysotracker), in words / Lysotracker IC50: 24 h; for Lysotracker IC50: lysosomal neutralization / V-ATPase inhibition
[10] = system: Nef; settings: cited from earlier work

Sequence of V-ATPase (Homo sapiens, UniProt P27449) (P27449 whole entry, looked up): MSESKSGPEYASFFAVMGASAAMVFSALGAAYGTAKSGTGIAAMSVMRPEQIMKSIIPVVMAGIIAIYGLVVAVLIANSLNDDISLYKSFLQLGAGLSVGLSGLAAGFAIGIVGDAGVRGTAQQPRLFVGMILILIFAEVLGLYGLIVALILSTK

CO/C1=C\C(C)=C\[C@@H](C)[C@@H](O)[C@@H](C)C/C(C)=C/C=C/[C@H](OC)[C@@H]([C@@H](C)[C@@H](O)[C@H](C)[C@@]2(O)C[C@@H](O[C@@H]3O[C@@H](C)[C@H](O)[C@@H](O)[C@H]3OC)[C@H](C)[C@@H](C(C)C)O2)OC1=O [compound 18, leucanicidin, reference compound]
toxicity, in words [1]: significantly more toxic

C/C=C/C=C/[C@H]1O[C@@](O)([C@@H](C)[C@H](O)[C@H](C)[C@H]2OC(=O)/C(OC)=C/C(C)=C/[C@@H](C)[C@@H](O)[C@@H](C)C/C(C)=C/C=C/[C@@H]2OC)C[C@@H](O[C@H]2C[C@@H](O)[C@H](O)[C@@H](C)O2)[C@@H]1C [compound 19, PC-766B, reference compound]
toxicity, in words [1]: significantly more toxic

CCCCCCCCC(=O)O[C@@H]1C[C@](O)([C@@H](C)[C@H](O)[C@H](C)[C@H]2OC(=O)/C(OC)=C/C(C)=C/[C@@H](C)[C@@H](O)[C@@H](C)C/C(C)=C/C=C/[C@@H]2OC)O[C@H](C(C)C)[C@H]1C [compound 15]
Nef inhibitory potency, in words (relative to parent or comparator) [2]: decreased potency; also recorded: opposite effect

C/C=C/[C@H]1O[C@@](O)([C@@H](C)[C@H](O)[C@H](C)[C@H]2OC(=O)/C(OC)=C/C(C)=C/[C@@H](C)[C@@H](O)[C@@H](CC)[C@@H](OC(C)=O)[C@H](C)C/C(C)=C/C=C/[C@@H]2OC)C[C@@H](O[C@H]2C[C@@H](OC(C)=O)[C@H](OC(N)=O)[C@@H](C)O2)[C@@H]1C [compound 33, 3’,9-diacetyl CMA]
restoration of MHC-I levels on infected (GFP+) cells [2]: restored MHC-I levels | MHC-I surface levels in cells lacking Nef [3]: did not substantially alter MHC-I surface levels

C/C=C/[C@H]1O[C@@](O)([C@@H](C)[C@H](O)[C@H](C)[C@H]2OC(=O)/C(OC)=C/C(C)=C/[C@@H](C)[C@@H](O)[C@@H](C)[C@@H](OC(C)=O)[C@H](C)C/C(C)=C/C=C/[C@@H]2OC)C[C@@H](O[C@H]2C[C@@H](OC(C)=O)[C@H](OC(N)=O)[C@@H](C)O2)[C@@H]1C [compound 31, 3’,9-diacetyl CMB]
toxicity, in words [1]: reducing toxicity

C=C/C=C/C(=O)O[C@@H]1C[C@](O)([C@@H](C)[C@H](O)[C@H](C)[C@H]2OC(=O)/C(OC)=C/C(C)=C/[C@@H](C)[C@@H](O)[C@@H](C)C/C(C)=C/C=C/[C@@H]2OC)O[C@H](C(C)C)[C@H]1C [compound 16]
Nef inhibitory potency, in words (relative to parent or comparator) [2]: decreased potency; also recorded: improved potency compared to 14 or 15

CO/C1=C\C(C)=C\[C@@H](C)[C@@H](O)[C@@H](C)C/C(C)=C/C=C/[C@H](OC)[C@@H]([C@@H](C)[C@@H](O)[C@H](C)[C@@]2(OC)C[C@@H](O)[C@H](C)[C@@H](C(C)C)O2)OC1=O [compound 8]
Nef inhibitory potency, in words (relative to parent or comparator) [2]: decreased potency

C[C@@H]1C[C@H](C)C[C@H](C)[C@@H](O)CC(=O)O[C@H]([C@@H]2CCC[C@H]2C(=O)O)C/C=C/C=C(/C#N)[C@H](O)[C@@H](C)C1 [S1, borrelidin]
toxicity at 24 h, in words [4]: toxic at 24-hrs

bafilomycin D [Baf D]
Nef inhibition, in words [5]: poor inhibitor | V-ATPase inhibition, in words [6]: poor inhibitor

C/C=C/[C@H]1O[C@@H]([C@@H](C)[C@H](O)[C@H](C)[C@H]2OC(=O)/C(OC)=C/C(C)=C/[C@@H](C)[C@@H](O)[C@@H](CC)[C@@H](O)[C@H](C)C/C(C)=C/C=C/[C@@H]2O)C[C@@H](O)[C@@H]1C [compound 39, 21-deoxy-16-hydroxy CMF]
reduction of Nef inhibitory activity compared to CMF (24) ([2]; vs CMF): over 200 fold

CC[C@H](C)C(=O)O[C@H]1C[C@@H](C)C=C2C=C[C@H](C)[C@H](CC[C@@H]3C[C@@H](O)CC(=O)O3)[C@H]21 [Lovastatin]
MHC-I HLA-A2 restoration in HIV-infected primary T cells, side-by-side assays [5]: partially restored | concentration for partial MHC-I restoration, relative to CMA [5]: 2,000 fold | surface expression of MHC-1 and CD4 [7]: increases surface expression | surface expression of SERINC5 [8]: increases surface expression

C/C=C/[C@H]1O[C@@](O)([C@@H](C)[C@H](O)[C@H](C)[C@H]2OC(=O)/C(OC)=C/C(C)=C/[C@@H](C)[C@@H](O)[C@@H](C)[C@@H](O)[C@H](C)C/C(C)=C/C=C/[C@@H]2OC)C[C@@H](O[C@H]2C[C@@H](O)[C@H](OC(N)=O)[C@@H](C)O2)[C@@H]1C [compound 22, concanamycin B, reference compound]
decrease in Nef inhibitory potency compared to CMA (1) ([2]; vs CMA): ~10 fold | V-ATPase inhibition (Lysotracker), in words [9]: even greater decrease in V-ATPase inhibitory potency

CO/C1=C\C(C)=C\[C@@H](C)[C@@H](O)[C@@H](C)C/C(C)=C/C=C/[C@H](OC)[C@@H]([C@@H](C)[C@@H](O)[C@H](C)[C@H]2C[C@@H](O)[C@H](C)[C@@H](C(C)C)O2)OC1=O [compound 9, 19-deoxy Baf A1]
Nef inhibitory potency, in words (relative to parent or comparator) [2]: decreased potency

CO/C1=C\C(C)=C\[C@@H](C)[C@@H](O)[C@@H](C)C/C(C)=C/C=C/[C@H](OC)[C@@H]([C@@H](C)[C@@H](O)[C@H](C)[C@H]2C[C@@H](OC)[C@H](C)[C@@H](C(C)C)O2)OC1=O [compound 10]
Nef inhibitory potency, in words (relative to parent or comparator) [2]: decreased potency

C=CC(C)C(OC(=O)[C@@H](C)[C@H](O)[C@H](C)[C@H]1OC(=O)/C(OC)=C/C(C)=C/[C@@H](C)[C@@H](O)[C@@H](C)C/C(C)=C/C=C/[C@@H]1OC)C(C)C (stereo partly drawn) [compound 12]
decrease in Nef potency compared to 2 ([2]; vs Baf A1): 26 fold | V-ATPase inhibition (Lysotracker), in words [9]: Dramatic reductions | toxicity, in words [1]: Dramatic reductions

C/C=C/[C@H]1O[C@@](O)([C@@H](C)[C@H](O)[C@H](C)[C@H]2OC(=O)/C(OC)=C/C(C)=C/[C@@H](C)[C@@H](O)[C@@H](CC)[C@@H](O)[C@H](C)C/C(C)=C/C=C/[C@@H]2OC)C[C@@H](O[C@H]2C[C@@H](O)[C@H](OC(N)=O)[C@@H](C)O2)[C@@H]1C [compound 1, concanamycin A, reference compound]
restoration of MHC-I levels on infected (GFP+) cells [2]: restored MHC-I levels | pIC50 [9]: 8.77 | MHC-I surface levels in cells lacking Nef [3]: did not substantially alter MHC-I surface levels | MHC-I HLA-A2 restoration in HIV-infected primary T cells, side-by-side assays [5]: near-fully restore | binding between Nef and CMA [10]: no binding

CO/C1=C\C(C)=C\[C@@H](C)C(=O)[C@@H](C)C/C(C)=C/C=C/[C@H](OC)[C@@H]([C@@H](C)[C@@H](O)[C@H](C)[C@@]2(O)CC(=O)[C@H](C)[C@@H](C(C)C)O2)OC1=O [compound 21]
Nef IC50 [2]: above the activity threshold | Lysotracker IC50 [9]: above the activity threshold

CO/C1=C\C(C)=C\[C@@H](C)C(=O)[C@@H](C)C/C(C)=C/C=C/[C@H](OC)[C@@H]([C@@H](C)[C@@H](O)[C@H](C)[C@@]2(O)C[C@@H](O)[C@H](C)[C@@H](C(C)C)O2)OC1=O [compound 20]
Nef inhibitory potency, in words (relative to parent or comparator) [2]: reduced activity at all concentrations tested | Nef IC50 [2]: above the activity threshold | Lysotracker IC50 [9]: above the activity threshold

CO/C1=C\C(C)=C\[C@@H](C)[C@@H](O)[C@@H](C)C/C(C)=C/C=C/[C@H](OC)[C@@H]([C@@H](C)[C@@H](O)[C@H](C)[C@H]2C=C(O)[C@H](C)[C@@H](C(C)C)O2)OC1=O [compound 11]
Nef inhibitory potency, in words (relative to parent or comparator) [2]: decreased potency

CCCCC(=O)O[C@@H]1C[C@](O)([C@@H](C)[C@H](O)[C@H](C)[C@H]2OC(=O)/C(OC)=C/C(C)=C/[C@@H](C)[C@@H](O)[C@@H](C)C/C(C)=C/C=C/[C@@H]2OC)O[C@H](C(C)C)[C@H]1C [compound 14]
Nef inhibitory potency, in words (relative to parent or comparator) [2]: decreased potency; also recorded: opposite effect

C/C=C/[C@H]1O[C@@H]([C@@H](C)[C@H](O)[C@H](C)[C@H]2OC(=O)/C(OC)=C/C(C)=C/[C@@H](C)[C@@H](O)[C@@H](CC)[C@@H](O)[C@H](C)C/C(C)=C/C=C/[C@@H]2OC)C[C@@H](O)[C@@H]1C [compound 38, 21-deoxy CMF]
Nef inhibitory potency, in words (relative to parent or comparator) [2]: no change in potency
